Results taken from the NIST ThermoML archive (doi:10.1021/je800787t).

Tests used:
[1] = refractive index (other wavelength) (dimensionless); conditions: 101.33 kPa, Liquid, Wavelength=632.8 nm, Standard Abbe refractometry
[2] = refractive index (other wavelength) (dimensionless); xn = mol fraction of the nth substance listed; conditions: 101.3 kPa, Liquid, Wavelength=632.8 nm, Standard Abbe refractometry

CCCCCCCCCC [decane]
[1]
Conditions	refractive index
278.87 K	1.4169
280.1 K	1.4163
281.3 K	1.4158
282.48 K	1.4153
283.62 K	1.4148
284.82 K	1.4142
286.06 K	1.4137
287.23 K	1.4132

CCCCCCCCCC [decane] + COC(=O)OC
[2], 287.95 K
Conditions	refractive index
x2 = 0.101	1.4095
x2 = 0.204	1.4062
x2 = 0.3	1.403
x2 = 0.401	1.3995
x2 = 0.501	1.3958
x2 = 0.605	1.3917
x2 = 0.686	1.388
x2 = 0.8	1.3821
x2 = 0.903	1.3762

COC(=O)OC [dimethyl carbonate]
[1]
Conditions	refractive index
277.34 K	1.3749
278.7 K	1.3743
280.06 K	1.3737
281.54 K	1.373
282.92 K	1.3724
284.24 K	1.3718
285.53 K	1.3712
286.93 K	1.3706
299.64 K	1.3647
300.69 K	1.3642
301.77 K	1.3637
302.82 K	1.3632
303.91 K	1.3627
304.99 K	1.3622
306.04 K	1.3617
307.11 K	1.3612
308.14 K	1.3607

COC(=O)OC [dimethyl carbonate] + CCCCCCCCCCCCCC
Conditions	refractive index
[2], 308.14 K, x1 = 1	1.3632

CCCCCCCCCCCCCC [tetradecane]
[1]
Conditions	refractive index
299.64 K	1.4248
300.67 K	1.4244
301.68 K	1.424
302.71 K	1.4235
303.75 K	1.4231
304.75 K	1.4226
305.78 K	1.4222
306.86 K	1.4218
307.91 K	1.4213

CCCCCCCCCCCCCC [tetradecane] + COC(=O)OC
[2], 308.14 K
Conditions	refractive index
x2 = 0	1.4235
x2 = 0.1	1.4179
x2 = 0.201	1.4145
x2 = 0.3	1.4107
x2 = 0.399	1.4067
x2 = 0.5	1.4019
x2 = 0.6	1.3966
x2 = 0.708	1.3898
x2 = 0.801	1.3826
x2 = 0.899	1.3729
